Columns and labels:
Assay type in all cases: in vivo
[1] = test system: giant foxtail (Setaria faberi, SETFA); experiment: Test A pre-emergence, giant foxtail; details: after 13 d
In short: (§1)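 Damage rated 0–100 (100 = total) 13 d after spraying. Application was one day post-sowing at 15.625, 62.5 or 250 g/ha, formulated in 50:50 acetone/water plus 0.5% Tween 20. Pots held in glasshouse at 24/16 °C day/night, 14 h light, 65% humidity, watered twice daily.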

[2] = test system: giant foxtail (Setaria faberi, SETFA); experiment: Test A post-emergence, giant foxtail; details: after 13 d
In short: (§2)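 Post-emergence spray at 8 d after sowing; doses 15.625, 62.5 or 250 g/ha in acetone/water 50:50 + 0.5% Tween 20. Glasshouse 24/16 °C, 14 h light, 65% RH, watered twice daily. Visual damage rating 0–100 at 13 d.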

[3] = test system: wheat; experiment: Test D pre-emergence, wheat seed treated with a herbicide safener; details: 100=total damage, 0=no damage
Method: (§3) A formulation containing 50 g/L of the test chemical was prepared by dissolving the active ingredient in a mixture of organic solvents and emulsifier, details of which are provided in the table. This formulation was then mixed with a small, variable amount of acetone to aid dissolution, before addition of a 0.2% v/v aqueous solution of an adjuvant, as the aqueous diluent, to form an aqueous spray solution which contains a predetermined concentration of the active ingredient.
(§4) This aqueous spray solution was then sprayed onto plants including maize and wheat that had been seed treated with a herbicide safener, after one day's cultivation (for pre-emergence) or after about 12 days' cultivation (for post-emergence). The plants were grown from seeds sown in standard soil, placed in a glasshouse under controlled conditions (at 24/18° C. or 20/16° C., day/night; 16 h light; 65% humidity). After spray application the plants were then grown in a glasshouse under the same conditions and watered twice daily. After 15 d for post-emergence and 20 DAA for pre-emergence the test was evaluated (100=total damage to plant; 0=no damage to plant).

[4] = test system: ivy-leaved morning glory (Ipomoea hederacea, IPOHE); experiment: Test A pre-emergence, ivy-leaved morning glory; details: after 13 d
In short: as §1

[5] = test system: ivy-leaved morning glory (Ipomoea hederacea, IPOHE); experiment: Test A post-emergence, ivy-leaved morning glory; details: after 13 d
In short: as §2

[6] = test system: maize; experiment: Test D post-emergence, maize seed treated with a herbicide safener
Method: as §3, §4

Row | Compound | damage to plant (100=total damage; 0=no damage) SETFA ([1]; Pre-Emergence at 15.625 g/ha) | damage to plant (100=total damage; 0=no damage) SETFA ([1]; Pre-Emergence at 62.5 g/ha) | damage to plant (100=total damage; 0=no damage) SETFA ([1]; Pre-Emergence at 250 g/ha) | damage to plant (100=total damage; 0=no damage) SETFA ([2]; Post-Emergence at 15.625 g/ha) | damage to plant (100=total damage; 0=no damage) SETFA ([2]; Post-Emergence at 62.5 g/ha) | damage to plant (100=total damage; 0=no damage) SETFA ([2]; Post-Emergence at 250 g/ha) | damage to plant, TRZAW ([3]; rate 15, 20 DAA) | damage to plant, TRZAW ([3]; rate 30, 20 DAA) | damage to plant, TRZAW ([3]; rate 60, 20 DAA) | damage to plant, TRZAW ([3]; rate 130, 20 DAA) | damage to plant, TRZAW ([3]; rate 250, 20 DAA) | damage to plant, TRZAW ([3]; rate 500, 20 DAA) | damage to plant (100=total damage; 0=no damage) IPOHE ([4]; Pre-Emergence at 15.625 g/ha) | damage to plant (100=total damage; 0=no damage) IPOHE ([4]; Pre-Emergence at 62.5 g/ha) | damage to plant (100=total damage; 0=no damage) IPOHE ([4]; Pre-Emergence at 250 g/ha) | damage to plant (100=total damage; 0=no damage) IPOHE ([5]; Post-Emergence at 62.5 g/ha) | damage to plant (100=total damage; 0=no damage) IPOHE ([5]; Post-Emergence at 250 g/ha) | damage to plant (100=total damage to plant; 0=no damage to plant), ZEAMX ([6]; rate 130, evaluated after 15 d) | damage to plant (100=total damage to plant; 0=no damage to plant), ZEAMX ([6]; rate 250, evaluated after 15 d) | damage to plant (100=total damage to plant; 0=no damage to plant), ZEAMX ([6]; rate 500, evaluated after 15 d) | other results
1 | COc1c(F)cccc1NC(=O)C1C(=O)N(C)CC1c1cc(C(F)(F)F)n(C)n1 (racemic) [Compound 18] | 90 | 90 | 90 | 50 | 70 | 70 | 0 | 0 | 0 | 0 | 20 | 30 | 10 | 10 | 20 | 20 | 50 | 0 | 0 | 10 | damage to plant (100=total damage; 0=no damage) IPOHE ([5]; Post-Emergence at 15.625 g/ha): 10
2 | CN1CC(c2cc(C(F)(F)F)n(C)n2)C(C(=O)Nc2cccc(F)c2C(F)(F)F)C1=O (racemic) [Compound 19] | 80 | 90 | 90 | 70 | 70 | 80 | 0 | 0 | 0 | 0 | 10 | 60 | 0 | 0 | 10 | 0 | 0 | 0 | 0 | 30 | damage to plant (100=total damage; 0=no damage) IPOHE ([5]; Post-Emergence at 15.625 g/ha): 0
3 | CN1CC(c2cc(C(F)(F)F)n(C)n2)C(C(=O)Nc2ccc(F)nc2F)C1=O (racemic) [Compound 22] | 80 | 90 | 90 | 50 | 70 | 80 | 0 | 0 | 0 | 0 | 0 | 10 | 0 | 0 | 0 | 10 | 30 | 0 | 0 | 20 | damage to plant (100=total damage; 0=no damage) IPOHE ([5]; Post-Emergence at 15.625 g/ha): 0
4 | CN1CC(c2cc(C(F)(F)F)n(C)n2)C(C(=O)Nc2cccc(F)n2)C1=O (racemic) [Compound 24] | 70 | 90 | 90 | 20 | 70 | 80 | 0 | 0 | 0 | 0 | 0 | 10 | 0 | 0 | 40 | 20 | 50 | 0 | 0 | 20 | damage to plant (100=total damage; 0=no damage) IPOHE ([5]; Post-Emergence at 15.625 g/ha): 10
5 | CN1CC(c2cc(C(F)(F)F)n(C)n2)C(C(=O)Nc2ccc(F)cc2C(C)(F)F)C1=O (racemic) [Compound 26] |  | 90 | 90 |  | 80 | 90 | 0 | 0 | 0 | 10 | 70 | 30 |  | 30 | 70 | 20 | 50 | 0 | 0 | 10 | 
6 | CN1C[C@H](c2nn(C)c3c(F)cccc23)[C@@H](C(=O)Nc2cccc(F)c2F)C1=O [Compound 2] | 90 | 90 | 90 | 0 | 70 | 80 | 0 | 0 | 0 | 10 | 20 | 80 | 0 | 0 | 0 | 0 | 0 | 0 | 0 | 20 | damage to plant (100=total damage; 0=no damage) IPOHE ([5]; Post-Emergence at 15.625 g/ha): 0
7 | CCn1nc([C@H]2CN(C)C(=O)[C@@H]2C(=O)Nc2cccc(F)c2F)c2c(F)cccc21 [Compound 7] | 70 | 80 | 90 | 60 | 70 | 80 | 0 | 0 | 0 | 0 | 0 | 0 | 20 | 20 | 80 | 20 | 0 | 0 | 0 | 10 | damage to plant (100=total damage; 0=no damage) IPOHE ([5]; Post-Emergence at 15.625 g/ha): 20

— patent US20220281848A1, “PYRAZOLE-SUBSTITUTED PYRROLIDINONES AS HERBICIDES” (FMC Corporation, priority 2019, published 2022)
